Results as given in patent US11477952B2, “Endophytic microbial seed treatment formulations and methods related thereto for improved plant performance” (ADVANCED BIOLOGICAL MARKETING, INC., priority 2017, dated 2022).

Tested on: seedlings
Experiment: Preliminary and greenhouse tests of 1-octen-3-ol on plant growth
Format: in vivo
Excerpt: These endophytic microorganisms frequently are fully symbiotic with plants (Harman, Howell, et al., 2004). These endophytic symbionts have abilities to induce multiple beneficial effects in plants, including induced resistance to diseases and potentially other pests; resistance to abiotic stresses such as drought, salt and flooding; improved efficiency of uses of nitrogen and other plant nutrients; enhancement of seed germination and seedling vigor; and enhanced plant growth and development. There are numerous diverse genera of microbes that induce at least most of these changes in plant performance, including mycorrhizae, plant growth promoting rhizobacteria, and Basidomycetous fungi in the Sebaciles such as Piriformaspora indica. These organisms have an endophytic versus a plant pathogenic life style (Shoresh, Mastouri, et al., 2010) typical of numerous other plant-associated microorganisms. The systemic changes in plant gene expression are presumed to be induced by the production of specific triggering metabolites from these different organisms. […]
Unexpected is the effect of the OMEGA biorational seed treatments that contain the fungal metabolite 1-octen-3-ol, yeast extract and humic acid (Leonardite shale). […] Thus the quantities applied are very small and cannot grow or proliferate on or in plants so their effects were expected to be transitory. […]

With C=CC(O)CCCCC (centres unmarked) [1-octen-3-ol] the seedling growth (greenhouse, 200 to 20,000 pL in different formulations, data not shown) was “plant growth promotive effects on seedling growth” and the plant growth (very low concentrations, preliminary work) was “strongly enhances plant growth”.
